From PubChem BioAssay AID651630 (Sanford-Burnham Center for Chemical Genomics, 2012)
Calls of active or inactive are those of the source.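 Rule for the calls: active = lipid-stain IC50 at or below a set limit, with nuclear-stain toxicity IC50 at least five times higher; inactive = the rest.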

How the values were obtained:
[1] = tested on: DAPI; assay: TAG lipid buildup inhibition with viability readout – cell-based, panel, Nile Red and DAPI fluorescence, H9c2, dose response (AID 651630); conditions: H9c2 cells, DAPI nuclear fluorescence (cytotoxicity counter-readout), oleic acid;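 note: cells exposed to compound overnight before fixation and staining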
[2] = tested on: TAG; assay: as above; conditions: H9c2 cells, Nile Red TAG fluorescence, oleic acid

SMILES | IC50 cytotoxicity (DAPI nuclear signal decrease) ([1]; mean of runs) | IC50 cytotoxicity (DAPI nuclear signal decrease) ([1]; run 1) | IC50 cytotoxicity (DAPI nuclear signal decrease) ([1]; run 2) | IC50 ([2]; mean of runs) | IC50 ([2]; run 1) | IC50 ([2]; run 2)
Cc1[nH]c2ccccc2c1/C=N/Nc1nc(Nc2ccc(F)cc2)nc(N2CCOCC2)n1 | > 25 µM (inactive) | > 25 µM | > 25 µM | 20.6 µM (inactive) | 21.6 µM | 19.7 µM
COCCN1Cc2cccc(C(=O)Nc3cccc(-c4nc5ccccc5[nH]4)c3)c2C1=O | – | > 25 µM | > 25 µM | 1.96 µM | 1.26 µM | 2.66 µM
CNC(=O)c1ccc(-c2sc3nc(N4CCOCC4)c4c(c3c2N)CCCC4)o1 | > 25 µM (inactive) | > 25 µM | > 25 µM | 6.57 µM | 5.49 µM | 7.64 µM
NC(=O)c1cc(-c2ccccc2)nc(N2CCOCC2)n1 | > 25 µM (inactive) | > 25 µM | > 25 µM | – | > 25 µM | 20.3 µM
N#CC1C=Cc2c(ccc3ccccc23)N1C(=O)c1ccccc1 (centres undefined) | > 25 µM (inactive) | > 25 µM | > 25 µM | > 25 µM (inactive) | > 25 µM | > 25 µM
COc1cc2c(c(OC)c1OC)-c1ccc(O)cc1C(NC(C)=O)CC2 (centres undefined) | > 25 µM (inactive) | > 25 µM | > 25 µM | > 25 µM (inactive) | > 25 µM | > 25 µM
CC(C)(C)NCCC(O)c1cc(C(F)(F)F)nc2c(C(F)(F)F)cccc12 (centres undefined) | > 25 µM (inactive) | > 25 µM | > 25 µM | 11.2 µM | 11.5 µM | 11 µM
COc1ccc(-c2cc(C(=O)Nc3cc(OC)cc(C(=O)Nc4cccc(C(F)(F)F)c4)c3)[nH]n2)cc1 | > 25 µM (inactive) | > 25 µM | > 25 µM | – | > 25 µM | 4.64 µM
CCN(CC)S(=O)(=O)c1ccc(N2CCOCC2)c(NC(=O)c2[nH]c(C)c(C(C)=O)c2C)c1 | > 25 µM (inactive) | > 25 µM | > 25 µM | 7 µM | 6.05 µM | 7.95 µM
COc1cc(C#Cc2c(-c3cncn3C)n(C)c3ccc(-c4cnc(N5CCOCC5)nc4)cc23)cc(OC)c1 | > 25 µM (inactive) | > 25 µM | > 25 µM | 11 µM | 14.3 µM | 7.65 µM
O=c1cc(-c2ccccc2)[nH]c2ccccc12 | – | 20.5 µM | > 25 µM | 3.61 µM | 2.45 µM | 4.77 µM
CN(C)CCNC(=O)C(=O)Nc1ccc2c(c1)N(S(=O)(=O)c1cccs1)CCC2 | > 25 µM (inactive) | > 25 µM | > 25 µM | > 25 µM (inactive) | > 25 µM | > 25 µM
C[C@@H]1CN([C@H](C)CO)C(=O)c2cccc(NC(=O)Nc3ccc(C(F)(F)F)cc3)c2O[C@H]1CN(C)S(=O)(=O)c1cccs1 | > 25 µM (inactive) | > 25 µM | > 25 µM | 15.9 µM (inactive) | 13.8 µM | 18 µM
CCO[C@@H]1OC(C(=O)N2CCN(Cc3ccccc3)CC2)=C[C@H](c2ccc(C(F)(F)F)cc2)[C@H]1CCCO | > 25 µM (inactive) | > 25 µM | > 25 µM | 11.4 µM | 11.2 µM | 11.6 µM
COc1ccc(C#Cc2ccc3c(c2)O[C@@H](CN(C)C(=O)Nc2cccc(OC)c2)[C@H](C)CN([C@@H](C)CO)S3(=O)=O)cc1 | > 25 µM (inactive) | > 25 µM | > 25 µM | 8.47 µM | 7.39 µM | 9.55 µM
CCOC(=O)c1cc(-c2ccccc2)sc1NC(=O)COC(=O)c1cccc(S(N)(=O)=O)c1 | > 25 µM (inactive) | > 25 µM | > 25 µM | – | > 25 µM | 21.4 µM
COCCN(Cc1ccccc1)C(=O)C1CCN(C(=O)Nc2ccccc2)CC1 | > 25 µM (inactive) | > 25 µM | > 25 µM | > 25 µM (inactive) | > 25 µM | > 25 µM

SMILES | IC50 cytotoxicity (DAPI nuclear signal decrease) ([1]; mean of runs) | IC50 cytotoxicity (DAPI nuclear signal decrease) ([1]; run 1) | IC50 cytotoxicity (DAPI nuclear signal decrease) ([1]; run 2) | IC50 ([2]; mean of runs) | IC50 ([2]; run 1) | IC50 ([2]; run 2)
Cc1cc(NC(=O)c2sccc2C)n(-c2nc3ccccc3[nH]2)n1 | > 25 µM (inactive) | > 25 µM | > 25 µM | 20.4 µM (inactive) | 19.9 µM | 20.9 µM
Cc1ccccc1OCCNc1cc(N2CC(C)NC(C)C2)ccc1[N+](=O)[O-] (centres undefined) | > 25 µM (inactive) | > 25 µM | > 25 µM | 13.1 µM | 14.6 µM | 11.6 µM
COc1ccc(-n2nc(C(=O)Nc3ccc4c(c3)OCO4)c3c4ccccc4n(C)c3c2=O)cc1 | > 25 µM (inactive) | > 25 µM | > 25 µM | – | 24.8 µM | > 25 µM
C[C@H]1CCCCO[C@H](CN(C)CC2CCCCC2)[C@@H](C)CN([C@@H](C)CO)C(=O)c2cc(NS(=O)(=O)c3ccccc3)ccc2O1 | > 25 µM (inactive) | > 25 µM | > 25 µM | – | 22.5 µM | > 25 µM
CCCCCCC(C)(C)c1ccc([C@@H]2C[C@H](O)CC[C@H]2CCCO)c(O)c1 | 22 µM (inactive) | 23.7 µM | 20.2 µM | 9.3 µM | 7.71 µM | 10.9 µM
O=C(N/N=C/c1ccc2c(c1)OCO2)c1cc(-c2ccncc2)nc2ccccc12 | > 25 µM (inactive) | > 25 µM | > 25 µM | 14.7 µM | 16.8 µM | 12.6 µM
CCOC(=O)[C@@H]1[C@H]2COc3ccc(Br)cc3[C@@H]2N2C(=O)N(c3ccc(C(F)(F)F)cc3)C(=O)[C@@]12C | – | > 25 µM | > 25 µM | 3.24 µM | 2.27 µM | 4.21 µM
O=C(CSc1nc2ccc(Nc3nc(N4CCOCC4)nc(N4CCOCC4)n3)cc2s1)Nc1ccccc1Cl | > 25 µM (inactive) | > 25 µM | > 25 µM | 8.88 µM | 7.69 µM | 10.1 µM
CCOc1ccc2nc(NC(=O)C3CCCN(S(=O)(=O)c4c(C)noc4C)C3)sc2c1 (centres undefined) | > 25 µM (inactive) | > 25 µM | > 25 µM | 5 µM | 4.04 µM | 5.97 µM
O=C(Nc1ccc(S(=O)(=O)N2CCOCC2)cc1)c1ccc([N+](=O)[O-])s1 | > 25 µM (inactive) | > 25 µM | > 25 µM | 10.9 µM | 13.1 µM | 8.75 µM
COc1ccc(NC(=O)N(C)[C@H]2C[C@H]3c4[nH]c5ccc(-c6ccc7c(c6)OCO7)cc5c4CCN3C[C@H]2[C@H](C)O)cc1 | > 25 µM (inactive) | > 25 µM | > 25 µM | 7.49 µM | 8.2 µM | 6.77 µM
CC(C)c1ccc(NC(=O)Nc2nc(C(N)C3CCCCC3)cs2)cc1 (centres undefined) | 17.3 µM (inactive) | 16 µM | 18.6 µM | 8.38 µM | 8.24 µM | 8.53 µM
C[C@H](O)[C@@H]1CN2CCc3c([nH]c4ccc(-c5ccc6c(c5)OCO6)cc34)[C@@H]2C[C@@H]1N(C)C(=O)Nc1cc(Cl)cc(Cl)c1 | > 25 µM (inactive) | > 25 µM | > 25 µM | 18.2 µM (inactive) | 11.9 µM | 24.5 µM
NC(Cc1ccc(C(F)(F)F)cc1)c1csc(Nc2nncc3ccccc23)n1 (centres undefined) | 21.4 µM (inactive) | 21.5 µM | 21.3 µM | > 25 µM (inactive) | > 25 µM | > 25 µM
COc1ccc(N=C2C(=Nc3ccc(OC)cc3)N(c3ccc(OC)cc3)C(=S)N2C(=O)c2ccc(OC)cc2)cc1 | – | > 25 µM | > 25 µM | < 0.78 µM | < 0.78 µM | < 0.78 µM
Cc1ccc(C2C(C=Nc3c(C)n(C)n(-c4ccccc4)c3=O)=C(c3ccccc3)Oc3ccccc32)cc1 (centres undefined) | > 25 µM (inactive) | > 25 µM | > 25 µM | 7.41 µM | 6.56 µM | 8.27 µM
